melting point | Compound
185 °C | N=c1sc(C(=O)c2cccs2)nn1-c1cccc(C(F)(F)F)c1
240 °C | Cn1c(=O)c(C2=NNC(=O)C2=NNc2cccc(Br)c2)c(O)c2ccccc21
204 to 205 °C | CCOC(=O)c1c(NC(=S)Nc2ccc(Br)cc2)sc2c1CCCC2
176 to 178 °C | O=C(Oc1ccccc1)c1ccc(O)cc1
172 to 173 °C | Cc1ccc(C=C2C(N)=NC(=O)N=C2N)cc1
170 °C | C(=C(\Oc1ccccc1)c1nc2ccccc2s1)/c1ccc2c(c1)OCO2
114 to 115 °C | c1ccc2c(c1)-c1ccccc1-2
89 to 91 °C | Cc1cc(Cl)ccc1Oc1ncccc1[N+](=O)[O-]
72 to 74 °C | CC(C)Nc1ccc(Cl)cc1[N+](=O)[O-]
105 to 106 °C | O=C(c1cccc2ccccc12)C(O)c1ccccc1 (stereo not drawn)
113 to 118 °C | O=C(C=Cc1ccc(F)cc1)c1ccc(F)cc1
90 °C | CN(C)CCOC1=Cc2ccccc2Sc2ccc(Cl)cc21
109 °C | c1ccc2c(c1)CCc1ccccc1CC2
37 to 39 °C | c1ccc(-c2cnco2)cc1
190 to 191 °C | NNc1ncnc2c1cnn2-c1ccccc1
108 °C | NNc1ccc(Br)cc1
97 °C | O=C(c1ccc(F)cc1)c1cccs1
91 °C | CCOC(=O)N1C(=O)c2ccccc2C1=O
107 to 110 °C | CCCc1c(C(=O)O)cnn1-c1ccccc1
230 to 232 °C | COC(=O)C1=C(N)Oc2cc(C)[nH]c(=O)c2C1c1ccccc1 (stereo not drawn)
273 °C | N#C/C(=N\Nc1ccc([N+](=O)[O-])cc1)c1nc2ccccc2c(=O)[nH]1
175 °C | CCOC(=O)c1nn(-c2cc(-c3ccc(OC)cc3)n[nH]2)c(=N)c(-c2nc3ccccc3s2)c1C
181 °C | O=[N+]([O-])c1cc([N+](=O)[O-])c(C(Cl)C(Cl)c2ccccc2)cc1/C=C\c1ccccc1 (stereo not drawn)

melting point | Compound
320 °C | O=[N+]([O-])c1ccc(-c2nnc3n2CN(c2ccc([N+](=O)[O-])cc2)CS3)cc1
139 °C | CS(=O)(=O)c1ccccc1C(=O)O
80 to 87 °C | C#Cc1ccc(-c2ccccc2)cc1
235 °C | O=c1c(C2CC(c3ccc(-c4ccc(Br)cc4)cc3)Cc3ccccc32)c(O)sc2ccccc12 (stereo not drawn)
77 °C | O=C(Cl)OCC1=Cc2ccccc2S1(=O)=O
18 °C | N#Cc1ccccc1C(F)(F)F
205 °C | Cc1ccc(C)c(N/N=C(/C#N)c2nc3ccccc3c(=O)[nH]2)c1
66.5 °C | Cc1ccc([N+](=O)[O-])cc1Cl
160 °C | Nc1ccc([N+](=O)[O-])c(F)c1
162 °C | Cc1nn(C(=O)c2ccncc2)c2c1nnc1ccc(Cl)cc12
149 to 150 °C | Cc1ccc(-c2ccc(C=C3N=C(c4ccccc4)OC3=O)o2)cc1
122 to 123 °C | O=Cc1ccc(-c2ccccn2)s1
160 °C | O=[N+]([O-])c1ccc(Sc2ccc([N+](=O)[O-])cc2)cc1
137 °C | CC(=O)N1C(=O)c2ccccc2C1=O
189 to 191 °C | Cn1c(=O)c(C(N)=NO)cn(-c2ccccc2)c1=O
167 to 168 °C | COc1ccc(C=NN=Cc2ccc(OC)cc2)cc1
193 °C | O=C1CC(C(F)(F)F)=NN1c1ccccc1
45.8 °C | c1ccc(C2=NNCC2)cc1
185 to 186 °C | Cc1nc(-c2cccc(-n3cccc3)c2)sc1C(=O)NN
59.5 °C | C#CCOC(=O)C(C)Oc1ccc(Oc2ncc(Cl)cc2F)cc1 (stereo not drawn)
328 to 330 °C | CN(C)c1ccc(-c2c(C#N)c(N)n(N)c(=O)c2C#N)cc1
2.2 °C | CCOc1ccccc1[N+](=O)[O-]
166 to 168 °C | NNC(=O)N1N=C(c2ccccc2)CCC1=O

The next lines start with the compound.

Compound | melting point
C=C1CC2CC(OC(=O)c3ccccc3)CCC2(C)C2CCC3(C)C(OC(=O)c4ccccc4)CCC3C12 (stereo not drawn) | 192 °C
O=C(O)C=Cc1ccc(Br)cc1F | 219 to 223 °C
COc1ccc(Br)cc1C | 68 °C
CSc1ncc(Br)c(C(=O)O)n1 | 156 to 157 °C
Nc1ccn(C2CCC(CO)O2)c(=O)n1 (stereo not drawn) | 218 °C
CSc1ccc(C(F)(F)F)cc1[N+](=O)[O-] | 94 to 96 °C
C#CCCCCCCCC | -44 °C
CCOC(=O)c1c(C=O)c(C)n(C2CC2)c1C | 75 to 80 °C
CCCCCCCCCCCCCCCCC1CCCCC1 | 33.6 °C
CCCCCCCCCCC#N | -6 °C
O=C1C=C(O)C(=O)C=C1O | 220 °C
Nc1cccc(CN2CCCC2)c1 | 72 to 74 °C
Cc1ccc(C#N)cc1F | 47 °C
C1CCC(C2CCCCC2)CC1 | 3 to 4 °C
CC(=O)Oc1ccc(C(C)(C)c2ccc(OC(C)=O)cc2)cc1 | 86 to 91 °C
CC1CCCC=CC2CC(O)CC2C(O)C=CC(=O)O1 (stereo not drawn) | 201 to 205 °C
CCOC(=O)Nc1cccc(OC(=O)Nc2ccccc2)c1 | 120 °C
COc1c(OC)c(OC(C)=O)c2cc(Cl)ccc2c1OC(C)=O | 91.5 °C
CCCCC(N)P(=O)(O)O (stereo not drawn) | 267 to 269 °C
COc1cccc2c1C(=O)c1c(O)c3c(c(O)c1C2=O)CC(O)(C(C)=O)CC3OC1CC(N)C(O)C(C)O1 (stereo not drawn) | 208 °C
Nc1ncc(F)cc1F | 57 °C

Compound | melting point
CCCCCCCCCOC(=O)c1ccc(N)cc1 | 69 °C
COC(=O)c1c(C)cc(=O)oc1C | 66 to 70 °C
CC1CCCC(=O)C1 (stereo not drawn) | -73 °C
CC1(C)C(C=C(Cl)Cl)C1C(=O)OC(C#N)c1ccc(F)c(Oc2ccccc2)c1 (stereo not drawn) | 93.5 °C
CCOC(=O)C1=C(C)NC(C)=C(C(=O)OCC)C1c1ccco1 | 164 °C
CCOC(=O)c1cc(-c2ccco2)n(C)n1 | 63 to 64 °C
COC1C(O)C(C)OC(OC2C(Oc3cccc4c(O)c5c(=O)oc6ccc(C)c7c(=O)oc(c34)c5c67)OC(C)C(O)C2O)C1O (stereo not drawn) | 185 °C
CC=CC=CCCCCCCCO | 32 °C
Cc1cnc(N)s1 | 97 °C
COc1ccc(N)cc1N | 67.5 °C
O=c1c(O)c(-c2ccc(O)c(O)c2)oc2cc(O)cc(O)c12 | 316 °C
C=C1C(=O)C23C(OC(C)=O)CC4C5(C)CCCC4(C(O)OC5)C2C(OC(C)=O)CC1C3OC(C)=O (stereo not drawn) | 226 °C
CCOC(=O)c1cc(-c2ccc(Br)s2)on1 | 51 to 53 °C
CCCNC(=O)NCCC | 105 °C
CCS(=O)(=O)CCO | 46 °C
CC12CCCC1C1CC=C3CC(O)CCC3(C)C1CC2 (stereo not drawn) | 136 °C
CC1(C)C=C(C(=O)ON2C(=O)CCC2=O)C(C)(C)N1O | 175 to 178 °C
Fc1cc(Br)c(F)cc1Br | 62 °C
O=C(CBr)c1ccc2c(c1)OCO2 | 91 to 93 °C
CCOC(=O)c1cc2cc(C(F)(F)F)c(C(F)(F)F)cc2c(=O)o1 | 193 °C
O=[N+]([O-])OC(CO)CO | 54 °C

Compound | melting point
NC(=O)c1ccccn1 | 106 °C
FC(F)(F)c1nnc(S)n1N=Cc1ccc(Cl)cc1 | 255 °C
CCCSC | -113 °C
O=C(O)/C=C/c1cc2c(cc1CC(=O)O)NC(=O)CC2 | 234 °C
COC(=O)c1cc(Br)cc(Br)c1N | 88 °C
O=C(Oc1c(F)c(F)c(F)c(F)c1F)c1cccc(-c2nccs2)c1 | 68.5 to 69.5 °C
CC(C)(C)OC(=O)NC(CI)C(=O)OCc1ccccc1 (stereo not drawn) | 81 °C
CCCc1cc(C(N)=S)ccn1 | 137 °C
Cc1cc2ncc(C(=O)O)c(C)n2n1 | 250 to 251 °C
O=C(O)CCC(=O)c1ccc(Br)cc1 | 146 to 147 °C
CCCCC(C)CCO (stereo not drawn) | -90 °C
CN1CCN(C(=O)OC2C3=C(SCCS3)C(=O)N2c2ccc3ccc(Cl)nc3n2)CC1 (stereo not drawn) | 280 °C
CCCCCCCCCC(=O)OC1CCC2C3CCC4=CC(=O)CCC4C3CCC12C (stereo not drawn) | 118 °C
CC(C)(C)OC(=O)NC(Cc1cccc(F)c1)C(=O)O (stereo not drawn) | 78 °C
C[C@]12CCC(=O)C[C@@H]1CC[C@@H]1[C@@H]2CC[C@]2(C)C(=O)C=C[C@@H]12 | 172 to 173 °C
Cc1ccc(O)c(C=O)c1 | 56 °C
COC[C@H]1CCCN1C(=S)SCC(=O)c1ccc(Br)cc1 | 89.5 °C
CCCCCCCCCCCCOC(=O)CCSCCC(=O)OCCCCCCCCCCCC | 41 °C
CCCCOC(=O)CC(CC(=O)OCCCC)(OC(C)=O)C(=O)OCCCC | -59 °C
COC(=O)c1cc(Cl)cc(C(=O)OC)c1 | 78 to 80 °C
CCOC(=O)C1CCN(Cc2cccc(N)c2)CC1 | 42 to 46 °C

Compound | melting point
CCN(CC)CC#CCOC(=O)C(O)(c1ccccc1)C1CCCCC1 (stereo not drawn) | 130 °C
CC(O)C(N)CO (stereo not drawn) | 54 to 57 °C
NC(=O)Cc1ccccc1 | 157 °C
CCOC(=O)c1sc(Cl)nc1C | 46 to 47 °C
COC(=O)[C@@H](N)Cc1ccc(O)cc1 | 137 °C
Fc1cc(F)c(Br)c(F)c1 | 4 °C
CCC(C)c1ccccc1OC(=O)NC (stereo not drawn) | 31.5 °C
CC(C)CCCCCCCOC(=O)CCCCC(=O)OCCCCCCCC(C)C | 27.4 °C
CC(C)(C)OC(=O)N1CCN(c2ccc(I)cc2)CC1 | 150 to 151 °C
CC(=O)CC(C)=O | -23 °C
COc1c(Br)cc(C)c2c1CCC2 | 30 °C
Nc1cc(C(F)(F)F)ccc1N1CCCCC1 | 41 to 43 °C
Cc1cccc(CCC(=O)O)c1 | 41 to 44 °C
C=C(C)C=O | -81 °C
NCCCP(=O)(O)O | 290 to 294 °C
CSC | -83 °C
COc1cc(C)ccc1S(=O)(=O)Cl | 87 °C
CC1C2CCC3C4CC=C5CC(N(C)C)CCC5(C)C4CCC32CN1C (stereo not drawn) | 126 °C
Nc1cc(Cl)ccc1S | 98 °C

From a melting point compilation (Tetko et al.)
